The test system of one data set is human fat cells. Briefly: isoprenaline-stimulated lipolysis (glycerol release) in human fat cells ex vivo. The data set is classed as cell-based. The following applies: compared with other genotypes. An excerpt: For this purpose, human fat cells ex vivo were stimulated with isoprenaline and lipolysis quantified on the basis of glycerol release (Hauner H et al. Effects of the G protein beta3 subunit 825T allele on adipogenesis and lipolysis in cultured human preadipocytes and adipocytes. Horm Metab Res. 2002;34(9):475-80). […] This agrees with the observation of increased expression of Gαs protein in this genotype.
In fat cells from humans with the GG genotype, there is increased lipolysis, measured as the release of glycerol. […] This also agrees with the observation that persons with the GG genotype on a low calorie diet lose more weight than persons with the AA/AG genotype.

Data set [1] can be described thus: metformin therapy for 12 months in women with PCOS: HOMA-IR index and BMI. The class given is in vivo, human. The settings on record: metformin 12 months. The procedure:
Polycystic ovarian syndrome (PCOS) is a frequent endocrine disease, characterized by chronic anovulation and hyperandrogenism. About 5% of all premenopausal women are affected by this. […] Treatment of PCOS patients with metformin improves fertility and androgen levels, reduces insulin resistance and facilitates weight reduction. For this purpose, women with the PCOS syndrome were treated with metformin for 12 months. Changes in the Body Mass Index (BMI) and insulin resistance according to the HOMA-IR method (homeostasis model assessment for insulin resistance) were investigated, together with the GNAS genotypes of the T393C polymorphism. FIG. 22A shoes the influence of therapy with an oral antidiabetic(metformin) on insulin resistance(A) and Body Mass Index (BMI; B) in women with polycystic ovaries. As already mentioned, therapy was carried out with metformin for 12 months. The change in the HOMA-IR index is given as a measure of the insulin resistance. It is evident that the most marked improvement of the HOMA-IR index is in individuals with the CC genotype(2.9), in contrast to 2.2 with the TC genotype and only 0.9 with the TT genotype. […] The changes in the BMI (a measure of body fat) behave similarly. […] This includes not only metformin, but also the so-called glitazones, tolbutamide, sulfonylureas and their derivatives, glinides and arcabose.

The nature of data set [2]: placebo-controlled, double blind study of sibutramine in obese patients: loss of weight after one year. The class given is in vivo, human. The settings on record: 15 mg/day for one year. Here is the method:
(§1) In the context of a placebo-controlled, double blind study, obese patients were given 15 mg sibutramine/day for one year. Sibutramine is a centrally active re-uptake inhibitor of noradrenaline and serotonin, both of which act through G protein-coupled receptors. Sibutramine (trade-name: Reductil, Meridia) enhances the feeling of satiety and makes it easier to lose weight in the context of structured measures to reduce weight (increase in physical activity, reduction in calorie intake). The outcome parameter of the study was the weight loss after one year.
The placebo or sibutramine (15 mg/day) were administered for one year. The loss of weight after one year (%) is illustrated, in dependence on the GNAS T393C genotype.
In addition, the study population was genotyped with respect to the GNAS G(-1211)A polymorphism (FIG. 19B). […] Placebo or sibutramine (15 mg/day) was administered for one year. The loss of weight (%) after one year is illustrated in dependence on the GNAS G(1211)A genotype. In the placebo group, patients with GNAS (-1211) GG genotype clearly could lose weight better(7.3%) than those with the AA- and AG genotype (1.8 and 3.1%, respectively). […] Thus therapy with sibutramine is predominantly indicated for patients with AG/AA genotype, whereas patients with CC genotype can also lose weight well under placebo. The time courses of the loss of weight for each genotype of the 393CT393C polymorphism (sibutramine versus placebo) are shown in FIGS. 20A, 20B and 20C. FIGS. 20 A, B and C illustrate the individual time courses for the changes in weight with placebo or sibutramine for the GNAS 393 CC genotype (A), the TC genotype (B) and the TT genotype (C). It is evident that only the TC and TT genotypes benefit from therapy with 15 mg sibutramine daily, whereas CC genotypes can lose weight without drug.

Data set [3] is described as follows: cardiovascular side-effects (heart rate, blood pressure) under therapy with sibutramine versus placebo. The class given is in vivo, human. The procedure:
as §1
The connection between gene modifications in the GNAS gene and the change in heart rate was examined after treatment with sibutramine versus placebo (FIG. 25). The effects are illustrated as they depend on the T393C polymorphism. […] FIG. 26 makes clear the possible use of a gene modification in the human GNAS gene to predict the increase in diastolic blood pressure during treatment with sibutramine.
FIG. 27 illustrates once again the possible use of a gene modification in the human GNAS gene to predict an increase in the heart rate during therapy with sibutramine. This illustrates the effects, in dependence on genotypes of the G(-1211)A polymorphism. […] Finally, FIG. 28 illustrates the possibility of an additional use of a gene modification in the human GNAS gene in the prediction of an increase in systolic blood pressure during therapy with sibutramine.

`CC(C)NCC(O)c1ccc(O)c(O)c1` (stereo not shown) [isoprenaline]: the “stimulation of lipolysis (glycerol release)” value with human fat cells (fat cells from humans with GNAS G(-1211)A GG genotype) and with human fat cells (fat cells from individuals with GNAS 393 TT genotype) was “most marked stimulation of lipolysis” in each case.
`CN(C)C(=N)N=C(N)N` [metformin]: the “decrease in the BMI” value stood at 15.8% in data set [1] (GNAS T393C CC genotype), 4.8% in data set [1] (GNAS T393C TC genotype) and 1.5% in data set [1] (GNAS T393C TT genotype). Moreover, the “improvement of the HOMA-IR index (insulin resistance)” value in data set [1] (GNAS T393C CC genotype) turned out to be 2.9; in data set [1] (GNAS T393C TC genotype), 2.2; in data set [1] (GNAS T393C TT genotype) it was 0.9.
For `CC(C)CC(N(C)C)C1(c2ccc(Cl)cc2)CCC1` (stereo not shown) [sibutramine], the “loss of weight after one year, sibutramine vs placebo” value in data set [2] (GNAS G(-1211)A AG and AA genotype) is “marked (p=0.027) increase in the loss of weight”; in data set [2] (GNAS G(-1211)A GG genotype), “favorable drug effect was not observed”; in data set [2] (GNAS T393C CC genotype), “favorable drug effect was not observed”; in data set [2] (GNAS T393C TC and TT genotype), “clear (p=0.027) increase in the loss of weight”. In addition, the “change in diastolic blood pressure during therapy with sibutramine” value in data set [3] (GNAS 393 CC and TC genotypes) is recorded as “does not occur”; in data set [3] (GNAS 393 TT genotype), “significant increase”. In addition, in data set [3] (GNAS -1211 GG genotype), the “change in systolic blood pressure under therapy with sibutramine” value is given as “lack of reduction of the systolic blood pressure”. Besides, the “change in heart rate (sibutramine versus placebo)” value in data set [3] (GNAS G(-1211)A GG genotype compared with AA/AG genotypes) is “significantly greater change in heart rate”. Further, the “increase in heart rate with sibutramine versus placebo” value in data set [3] (GNAS T393C CC genotype) is recorded as “This effect does not occur”; in data set [3] (GNAS T393C TC genotype), 10 beats per minute; in data set [3] (GNAS T393C TT genotype) it was 20 beats per minute.

(Values after US20060147936A1, “Use of a gene mutation in the human gnas gene for predicting risks of diseases, courses of the disease and for predicting the response to disease therapies” (priority 2003, published 2006).)
